Reference: article PMC11093748, “De novo identification of CD4^+ T cell epitopes” (Nature Methods, 2024)

System: BDC2.5 TCR
Assay: I-Ag7 SABR-II library screen, enrichment score
Type: cell-based, mouse
Settings: I-Ag7 library; EXPT1 of 8 biological experiments
From the text: We then asked whether SABR-IIs could be used to present a library of epitopes for CD4^+ T cell antigen discovery. To that end, we constructed a SABR-II library to present epitopes derived from pancreatic islets in I-Ag7 by curating a list of 4,075 published epitopes from the Immune Epitope Database (iedb.org)[50] and a study by Wan et al.[51] (Supplementary Table 1). Of note, this defined library consisted of unmodified epitopes from endogenous proteins, synthetic mimotopes, deamidated epitopes and hybrid insulin peptides (HIPs) that arise from post-translational fusion and are not genetically encoded in vivo[52],[53]. The epitope library was inserted into the I-Ag7 SABR-II backbone through pooled oligonucleotide synthesis, amplification and ligation-free cloning (Extended Data Fig. 3a). The I-Ag7 SABR-II-library was then expressed in NFAT–GFP Jurkat cells. We confirmed that after sequencing, the library accounted for a mean of 708 reads per epitope (Extended Data Fig. 3b). As a proof of concept, we performed co-incubation assays with Jurkat cells expressing the BDC2.5 TCR and sorted the top 1–2% of GFP^+CD69^+ cells at a rate of ~20 min per replicate with three replicates per TCR. We extracted the genomic DNA from sorted cells, amplified the SABR portion of the integrated proviruses and subjected the amplicons to Illumina sequencing (Extended Data Fig. 3c,d). The 1–2% sort gate represents >50-fold enrichment of cognate epitopes with minimal loss of signal (Extended Data Fig. 3e–h). Sequence reads were aligned to the I-Ag7 SABR-II backbone and the corresponding epitopes were scored based on their read counts. For each TCR under investigation, an enrichment score (ES) was determined for all the epitopes in a library. In each experiment, three replicates of a sort with TCR-expressing Jurkat cells were performed and reads were counted post-sequencing. In addition, three replicates of the unsorted library were also sequenced. A linear regression model was built using the unsorted library counts and used to determine the expected abundance of each epitope in the library. The ES was calculated based on the difference between the measured and the expected abundance of each epitope on a per-TCR basis (Fig. 1e). Based on ES values, two quantitative thresholds were used to determine putative cognate epitopes of a given TCR. A high-confidence zone containing clear outliers with a high ES and a low-confidence zone containing weak outliers with a moderately high ES were determined (Fig. 1e). This two-tiered strategy was used to call putative hits from screens. All the top-scoring epitopes for the BDC2.5 TCR were known BDC2.5 ligands containing the WXRM(D/E) motif (Fig. 1f,g, enriched ligands in red), a well-characterized trait of the BDC2.5 TCR[43],[54]–[56]. Across several independent experiments there was limited variation in ES values for the same TCRs and several epitopes fell into high- or low-confidence zones consistently (Extended Data Fig. 4a). Using a different TCR that was isolated from NOD mice, 4-8Ins[57], which recognized the InsB9:23 epitope ([…]), we observed a similar pattern of ES for cognate epitopes (Extended Data Fig. 4b).
For SABR library screens, 3 × 10^6 NFAT–GFP Jurkat cells expressing the SABR library were labeled with CellTrace Violet (BioLegend) according to the manufacturer’s protocol before incubation with 3 × 10^6 Jurkat cells expressing the TCR of interest. These mixtures were incubated in a six-well plate for 16–20 h. Cells were stained with anti-CD69-APC-Cy7 where indicated (BioLegend) and the top 1–2% of GFP^+CD69^+ cells were sorted for genomic DNA extraction, indexing and sequencing (see below). Multiplexed assays were scaled on a per-TCR basis (for example 3 × 10^6 for each of three TCRs against 9 × 10^6 library cells). […]

**Q.** With “EKAHRPIWARMDAKK [top putative hit of BDC2.5 TCR in I-Ag7 library]” as the sequence, how does the Enrichment score read?
**A.** 0.001675

**Q.** Which Enrichment score does the source give for “RTRPLWVRME [top putative hit of BDC2.5 TCR in I-Ag7 library]” here?
**A.** 0.000766

**Q.** How did the Enrichment score turn out when “RVRPLWVRME [top putative hit of BDC2.5 TCR in I-Ag7 library]” was run?
**A.** 0.001251

**Q.** Which Enrichment score does the source give for “SRLGAWVRME [top putative hit of BDC2.5 TCR in I-Ag7 library]” here?
**A.** 0.000522

**Q.** “SRLGLWARME [top putative hit of BDC2.5 TCR in I-Ag7 library]” was tested. Which Enrichment score did it give?
**A.** 0.00089

**Q.** How did the Enrichment score turn out when “SRLGLWVRMA [top putative hit of BDC2.5 TCR in I-Ag7 library]” was run?
**A.** 0.000692

**Q.** With “SRLGLWVRME [top putative hit of BDC2.5 TCR in I-Ag7 library]” as the sequence, how does the Enrichment score read?
**A.** 0.000716

Same assay, conditions: I-Ag7 library; EXPT2 of 8

**Q.** Which Enrichment score does the source give for “EKAHRPIWARMDAKK [top putative hit of BDC2.5 TCR in I-Ag7 library]” here?
**A.** 0.001085

**Q.** With “RTRPLWVRME [top putative hit of BDC2.5 TCR in I-Ag7 library]” as the sequence, how does the Enrichment score read?
**A.** 0.000703

**Q.** Which Enrichment score does the source give for “RVRPLWVRME [top putative hit of BDC2.5 TCR in I-Ag7 library]” here?
**A.** 0.001157

**Q.** How did the Enrichment score turn out when “SRLGAWVRME [top putative hit of BDC2.5 TCR in I-Ag7 library]” was run?
**A.** 0.000175

**Q.** Which Enrichment score does the source give for “SRLGLWARME [top putative hit of BDC2.5 TCR in I-Ag7 library]” here?
**A.** 0.000594

**Q.** With “SRLGLWVRMA [top putative hit of BDC2.5 TCR in I-Ag7 library]” as the sequence, how does the Enrichment score read?
**A.** 0.000345

**Q.** How did the Enrichment score turn out when “SRLGLWVRME [top putative hit of BDC2.5 TCR in I-Ag7 library]” was run?
**A.** 0.000449

Same assay, conditions: I-Ag7 library; EXPT3 of 8

**Q.** With “EKAHRPIWARMDAKK [top putative hit of BDC2.5 TCR in I-Ag7 library]” as the sequence, how does the Enrichment score read?
**A.** 0.002939

**Q.** Which Enrichment score does the source give for “RTRPLWVRME [top putative hit of BDC2.5 TCR in I-Ag7 library]” here?
**A.** 0.00077

**Q.** For “RVRPLWVRME [top putative hit of BDC2.5 TCR in I-Ag7 library]”, which Enrichment score is on record?
**A.** 0.001581

**Q.** How did the Enrichment score turn out when “SRLGAWVRME [top putative hit of BDC2.5 TCR in I-Ag7 library]” was run?
**A.** 0.000684

**Q.** With “SRLGLWARME [top putative hit of BDC2.5 TCR in I-Ag7 library]” as the sequence, how does the Enrichment score read?
**A.** 0.000983

**Q.** Which Enrichment score does the source give for “SRLGLWVRMA [top putative hit of BDC2.5 TCR in I-Ag7 library]” here?
**A.** 0.000603

**Q.** Which Enrichment score does the source give for “SRLGLWVRME [top putative hit of BDC2.5 TCR in I-Ag7 library]” here?
**A.** 0.000874

Same assay, conditions: I-Ag7 library; EXPT4 of 8

**Q.** Which Enrichment score does the source give for “EKAHRPIWARMDAKK [top putative hit of BDC2.5 TCR in I-Ag7 library]” here?
**A.** 0.002157

**Q.** How did the Enrichment score turn out when “RTRPLWVRME [top putative hit of BDC2.5 TCR in I-Ag7 library]” was run?
**A.** 0.000734

**Q.** With “RVRPLWVRME [top putative hit of BDC2.5 TCR in I-Ag7 library]” as the sequence, how does the Enrichment score read?
**A.** 0.000795

**Q.** Which Enrichment score does the source give for “SRLGAWVRME [top putative hit of BDC2.5 TCR in I-Ag7 library]” here?
**A.** 0.000306

**Q.** With “SRLGLWARME [top putative hit of BDC2.5 TCR in I-Ag7 library]” as the sequence, how does the Enrichment score read?
**A.** 0.000723

**Q.** With “SRLGLWVRMA [top putative hit of BDC2.5 TCR in I-Ag7 library]” as the sequence, how does the Enrichment score read?
**A.** 0.000358

**Q.** Which Enrichment score does the source give for “SRLGLWVRME [top putative hit of BDC2.5 TCR in I-Ag7 library]” here?
**A.** 0.000616

Same assay, conditions: I-Ag7 library; EXPT5 of 8

**Q.** With “EKAHRPIWARMDAKK [top putative hit of BDC2.5 TCR in I-Ag7 library]” as the sequence, how does the Enrichment score read?
**A.** 0.001924

**Q.** Which Enrichment score does the source give for “RTRPLWVRME [top putative hit of BDC2.5 TCR in I-Ag7 library]” here?
**A.** 0.001024

**Q.** For “RVRPLWVRME [top putative hit of BDC2.5 TCR in I-Ag7 library]”, which Enrichment score is on record?
**A.** 0.001224

**Q.** For “SRLGAWVRME [top putative hit of BDC2.5 TCR in I-Ag7 library]”, which Enrichment score is on record?
**A.** 0.000243

**Q.** How did the Enrichment score turn out when “SRLGLWARME [top putative hit of BDC2.5 TCR in I-Ag7 library]” was run?
**A.** 0.000811

**Q.** With “SRLGLWVRMA [top putative hit of BDC2.5 TCR in I-Ag7 library]” as the sequence, how does the Enrichment score read?
**A.** 0.000683

**Q.** With “SRLGLWVRME [top putative hit of BDC2.5 TCR in I-Ag7 library]” as the sequence, how does the Enrichment score read?
**A.** 0.000562

Same assay, conditions: I-Ag7 library; EXPT6 of 8

**Q.** “EKAHRPIWARMDAKK [top putative hit of BDC2.5 TCR in I-Ag7 library]” was tested. Which Enrichment score did it give?
**A.** 0.002825

**Q.** How did the Enrichment score turn out when “RTRPLWVRME [top putative hit of BDC2.5 TCR in I-Ag7 library]” was run?
**A.** 0.001078

**Q.** Which Enrichment score does the source give for “RVRPLWVRME [top putative hit of BDC2.5 TCR in I-Ag7 library]” here?
**A.** 0.001618

**Q.** For “SRLGAWVRME [top putative hit of BDC2.5 TCR in I-Ag7 library]”, which Enrichment score is on record?
**A.** 0.000632

**Q.** How did the Enrichment score turn out when “SRLGLWARME [top putative hit of BDC2.5 TCR in I-Ag7 library]” was run?
**A.** 0.001313

**Q.** For “SRLGLWVRMA [top putative hit of BDC2.5 TCR in I-Ag7 library]”, which Enrichment score is on record?
**A.** 0.000858

**Q.** Which Enrichment score does the source give for “SRLGLWVRME [top putative hit of BDC2.5 TCR in I-Ag7 library]” here?
**A.** 0.000596

Same assay, conditions: I-Ag7 library; EXPT7 of 8

**Q.** For “EKAHRPIWARMDAKK [top putative hit of BDC2.5 TCR in I-Ag7 library]”, which Enrichment score is on record?
**A.** 0.003201

**Q.** For “RTRPLWVRME [top putative hit of BDC2.5 TCR in I-Ag7 library]”, which Enrichment score is on record?
**A.** 0.001083

**Q.** For “RVRPLWVRME [top putative hit of BDC2.5 TCR in I-Ag7 library]”, which Enrichment score is on record?
**A.** 0.001744

**Q.** Which Enrichment score does the source give for “SRLGAWVRME [top putative hit of BDC2.5 TCR in I-Ag7 library]” here?
**A.** 0.000765

**Q.** Which Enrichment score does the source give for “SRLGLWARME [top putative hit of BDC2.5 TCR in I-Ag7 library]” here?
**A.** 0.001203

**Q.** How did the Enrichment score turn out when “SRLGLWVRMA [top putative hit of BDC2.5 TCR in I-Ag7 library]” was run?
**A.** 0.0006

**Q.** Which Enrichment score does the source give for “SRLGLWVRME [top putative hit of BDC2.5 TCR in I-Ag7 library]” here?
**A.** 0.000875

Same assay, conditions: I-Ag7 library; EXPT8 of 8

**Q.** With “EKAHRPIWARMDAKK [top putative hit of BDC2.5 TCR in I-Ag7 library]” as the sequence, how does the Enrichment score read?
**A.** 0.003092

**Q.** Which Enrichment score does the source give for “RTRPLWVRME [top putative hit of BDC2.5 TCR in I-Ag7 library]” here?
**A.** 0.001303

**Q.** How did the Enrichment score turn out when “RVRPLWVRME [top putative hit of BDC2.5 TCR in I-Ag7 library]” was run?
**A.** 0.001586

**Q.** With “SRLGAWVRME [top putative hit of BDC2.5 TCR in I-Ag7 library]” as the sequence, how does the Enrichment score read?
**A.** 0.000784

**Q.** With “SRLGLWARME [top putative hit of BDC2.5 TCR in I-Ag7 library]” as the sequence, how does the Enrichment score read?
**A.** 0.001063

**Q.** How did the Enrichment score turn out when “SRLGLWVRMA [top putative hit of BDC2.5 TCR in I-Ag7 library]” was run?
**A.** 0.000465

**Q.** How did the Enrichment score turn out when “SRLGLWVRME [top putative hit of BDC2.5 TCR in I-Ag7 library]” was run?
**A.** 0.000992
